Measured values published in paper PMC12736255, “Reinvestigating Pyrrol-2-One-Based Compounds: From Antimicrobial Agents to Promising Antitumor Candidates” (Pharmaceuticals, 2025).

What was measured:
Test in all cases: NCI-60 single-dose screen
[1] = test system: EKVX; type: cell-based, human; details: Homo sapiens, 10^–5 M, read-out: GI (%)
Method in brief: (§1)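 Human tumor cells, 60-line NCI panel; compound dosed only at 10^−5 M.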

[2] = test system: NCI-H226; type: cell-based, human; details: NCI-H226, 10^–5 M; for inhibition at 10 µM: Homo sapiens, read-out: GI (%)
Method in brief: as §1

[3] = test system: 786-0; type: cell-based; details: Homo sapiens; 786-0, 10^–5 M; read-out: GI (%)
Method in brief: as §1

[4] = test system: A498; type: cell-based; details: Homo sapiens; A498, 10^–5 M; read-out: GI (%)
Method in brief: as §1

[5] = test system: CAKI-1; type: cell-based; details: Homo sapiens; CAKI-1, 10^–5 M; read-out: GI (%)
Method in brief: as §1

[6] = test system: COLO205; type: cell-based; details: Homo sapiens, COLO 205; COLO205, 10^–5 M; read-out: GI (%)
Method in brief: as §1

[7] = test system: HCT-116; type: cell-based; details: Homo sapiens; HCT-116, 10^–5 M; read-out: GI (%)
Method in brief: as §1

[8] = test system: HCT-15; type: cell-based; details: Homo sapiens; HCT-15, 10^–5 M; read-out: GI (%)
Method in brief: as §1

[9] = test system: HL-60(TB); type: cell-based; details: Homo sapiens, 10^–5 M, read-out: GI (%)
Method in brief: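 Read-out is from the NCI-60 program: human tumor lines exposed to a single 10^−5 M dose of each compound.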

[10] = test system: HOP-92; type: cell-based; details: Homo sapiens; HOP-92, 10^–5 M; read-out: GI (%)
Method in brief: as §1

[11] = test system: HS 578T; type: cell-based; details: Homo sapiens, 10^–5 M, read-out: GI (%)
Method in brief: as §1

[12] = test system: HT-29; type: cell-based; details: Homo sapiens; HT-29, 10^–5 M; read-out: GI (%)
Method in brief: as §1

[13] = test system: KM12; type: cell-based; details: Homo sapiens; KM12, 10^–5 M; read-out: GI (%)
Method in brief: as §1

[14] = test system: LOX IMVI; type: cell-based; details: Homo sapiens, 10^–5 M, read-out: GI (%)
Method in brief: as §1

[15] = test system: M14; type: cell-based; details: Homo sapiens; M14, 10^–5 M; read-out: GI (%)
Method in brief: as §1

[16] = test system: MCF7; type: cell-based; details: Homo sapiens; MCF7, 10^–5 M; read-out: GI (%)
Method in brief: as §1

[17] = test system: MDA-MB-231/ATCC; type: cell-based; details: Homo sapiens, 10^–5 M, read-out: GI (%)
Method in brief: as §1

[18] = test system: MDA-MB-435; type: cell-based; details: Homo sapiens; MDA-MB-435, 10^–5 M; read-out: GI (%)
Method in brief: as §1

[19] = test system: MOLT-4; type: cell-based; details: Homo sapiens; MOLT-4, 10^–5 M; read-out: GI (%)
Method in brief: as §1

[20] = test system: NCI-H23; type: cell-based; details: Homo sapiens; NCI-H23, 10^–5 M; read-out: GI (%)
Method in brief: as §1

[21] = test system: NCI-H322M; type: cell-based; details: Homo sapiens, 10^–5 M, read-out: GI (%)
Method in brief: as §1

[22] = test system: NCI-H522; type: cell-based; details: Homo sapiens; NCI-H522, 10^–5 M; read-out: GI (%)
Method in brief: as §1

[23] = test system: NCI/ADR-RES; type: cell-based; details: Homo sapiens, 10^–5 M, read-out: GI (%)
Method in brief: as §1

[24] = test system: OVCAR-3; type: cell-based; details: Homo sapiens; OVCAR-3, 10^–5 M; read-out: GI (%)
Method in brief: as §1

[25] = test system: OVCAR-8; type: cell-based; details: Homo sapiens; OVCAR-8, 10^–5 M; read-out: GI (%)
Method in brief: as §1

[26] = test system: RPMI-8226; type: cell-based; details: Homo sapiens; RPMI-8226, 10^–5 M; read-out: GI (%)
Method in brief: as §1

[27] = test system: SF-268; type: cell-based; details: Homo sapiens; SF-268, 10^–5 M; read-out: GI (%)
Method in brief: as §1

[28] = test system: SF-539; type: cell-based; details: Homo sapiens; SF-539, 10^–5 M; read-out: GI (%)
Method in brief: as §1

[29] = test system: SK-MEL-2; type: cell-based; details: Homo sapiens; SK-MEL-2, 10^–5 M; read-out: GI (%)
Method in brief: as §1

[30] = test system: SK-MEL-5; type: cell-based; details: Homo sapiens; SK-MEL-5, 10^–5 M; read-out: GI (%)
Method in brief: as §1

[31] = test system: SK-OV-3; type: cell-based; details: Homo sapiens; SK-OV-3, 10^–5 M; read-out: GI (%)
Method in brief: as §1

[32] = test system: SN12C; type: cell-based; details: Homo sapiens, 10^–5 M, read-out: GI (%)
Method in brief: as §1

[33] = test system: SNB-19; type: cell-based; details: Homo sapiens; SNB-19, 10^–5 M; read-out: GI (%)
Method in brief: as §1

[34] = test system: SNB-75; type: cell-based; details: Homo sapiens; SNB-75, 10^–5 M; read-out: GI (%)
Method in brief: as §1

[35] = test system: SW-620; type: cell-based; details: Homo sapiens; SW-620, 10^–5 M; read-out: GI (%)
Method in brief: as §1

[36] = test system: T-47D; type: cell-based; details: Homo sapiens, T47D, 10^–5 M, read-out: GI (%)
Method in brief: as §1

[37] = test system: UACC-257; type: cell-based; details: Homo sapiens; UACC-257, 10^–5 M; read-out: GI (%)
Method in brief: as §1

SMILES	inhibition at 10 µM [1] [%]	inhibition at 10 µM [2] [%]	inhibition at 10 µM [3] [%]	inhibition at 10 µM [4] [%]	inhibition at 10 µM [5] [%]	inhibition at 10 µM [6] [%]	inhibition at 10 µM [7] [%]	inhibition at 10 µM [8] [%]	inhibition at 10 µM [9] [%]	inhibition at 10 µM [10] [%]	inhibition at 10 µM [11] [%]	inhibition at 10 µM [12] [%]	inhibition at 10 µM [13] [%]	inhibition at 10 µM [14] [%]	inhibition at 10 µM [15] [%]	inhibition at 10 µM [16] [%]	inhibition at 10 µM [17] [%]	inhibition at 10 µM [18] [%]	inhibition at 10 µM [19] [%]	inhibition at 10 µM [20] [%]	also measured
COc1ccc(C2C=C(Nc3ccc(I)cc3)C(=O)N2c2ccc(I)cc2)cc1OC (stereo not shown) [3j]	40	0	0	0	5	9	0	0	0	0	0	0	0	8	0	6	0	0	0	8	inhibition at 10 µM [21]: 0%; inhibition at 10 µM [22]: 0%; inhibition at 10 µM [23]: 0%; inhibition at 10 µM [24]: 0%; inhibition at 10 µM [25]: 0%; inhibition at 10 µM [26]: 7%; inhibition at 10 µM [27]: 3%; inhibition at 10 µM [28]: 28%; inhibition at 10 µM [29]: 0%; inhibition at 10 µM [30]: 11%; inhibition at 10 µM [31]: 0%; inhibition at 10 µM [32]: 0%; inhibition at 10 µM [33]: 0%; inhibition at 10 µM [34]: 0%; inhibition at 10 µM [35]: 0%; inhibition at 10 µM [36]: 6%; inhibition at 10 µM [37]: 0%
COc1cc(OC)c(C2C=C(Nc3ccc(I)cc3)C(=O)N2c2ccc(I)cc2)cc1OC (stereo not shown) [3k]	0	0	3	0	15	0	4	0	2	0	0	0	2	5	0	23	0	0	0	0	inhibition at 10 µM [21]: 4%; inhibition at 10 µM [22]: 2%; inhibition at 10 µM [23]: 0%; inhibition at 10 µM [24]: 0%; inhibition at 10 µM [25]: 0%; inhibition at 10 µM [26]: 14%; inhibition at 10 µM [27]: 1%; inhibition at 10 µM [28]: 18%; inhibition at 10 µM [29]: 0%; inhibition at 10 µM [30]: 12%; inhibition at 10 µM [31]: 0%; inhibition at 10 µM [32]: 2%; inhibition at 10 µM [33]: 0%; inhibition at 10 µM [34]: 0%; inhibition at 10 µM [35]: 0%; inhibition at 10 µM [36]: 8%; inhibition at 10 µM [37]: 0%
N#Cc1ccc(C2C=C(Nc3ccc(I)cc3)C(=O)N2c2ccc(I)cc2)cc1 (stereo not shown) [3l]	100	100	55	88	62	46	48	21	0	75	100	40	52	89	63	52	100	19	78	36	GI (%) [2]: 100 ^i1%; inhibition at 10 µM [21]: 51%; inhibition at 10 µM [22]: 32%; inhibition at 10 µM [23]: 37%; inhibition at 10 µM [24]: 60%; inhibition at 10 µM [25]: 30%; inhibition at 10 µM [26]: 83%; inhibition at 10 µM [27]: 93%; inhibition at 10 µM [28]: 35%; inhibition at 10 µM [29]: 100%; inhibition at 10 µM [30]: 24%; inhibition at 10 µM [31]: 75%; inhibition at 10 µM [32]: 59%; inhibition at 10 µM [33]: 35%; inhibition at 10 µM [34]: 100%; inhibition at 10 µM [35]: 50%; inhibition at 10 µM [36]: 59%; inhibition at 10 µM [37]: 21%
